Results taken from patent US20250319032A1, “PHARMACEUTICAL COMPOSITIONS OF RIBOCICLIB” (Novartis AG, priority 2024, published 2025).
Each block holds one compound with its values, some of them ahead of it.

Legend:
[1] = DMP433 (N-nitroso-ribociclib) content in ribociclib base (B10) and ribociclib succinate (B12, drug substance) batches and process experiments, LC-MS/MS or HPLC-HRMS; format: physicochemical; details: for DMP433 (LOQ: 30 ppb): LEE011-B10, laboratory scale 30 g experiments; for DMP433 [ppm] LOQ (0.0625 ppm) / DMP433 [ppm], result in brackets (extrapolation, estimate of actual value below LOQ): ribociclib base (LEE011 B10)
From the text: The method of testing for the presence and/or total amount of nitrosamines (such as the presence and/or total amount of N-nitroso-ribociclib in free or salt form) that is used in the methods of the invention may be any method which allows for the detection of nitrosamines in a composition. For example, the method may involve the Griess test described above. In such a method, the nitrosamines may be first denitrosated (e.g., by photolysis) to form a nitrite, which is then detected in the Griess test. Alternatively, the method may include high performance liquid chromatography (HPLC)- and/or gas chromatography (GC)-mass spectroscopy. An example of a method of testing for the presence and amount of nitrosamines (namely N-nitroso-ribociclib) is provided herein as Example 14. […]
2.7. […] Dissolve the substance using vortex and fill to volume with solvent (50% MeOH). • 3. Filter through 0.2 μm PVDF (polyvinylidene difluoride) or PTFE (polytetrafluoroethylene) filter into a HPLC amber vial, discard the first 0.5 ml.
A calibration curve for DMP433 is created, using calibration standard solutions L1-L6, and expressing the relationship between responses (peak areas) and standard concentrations (ng/ml). For L1, the average of 6 injections is used. Linear regression is weighed with 1/amount. […]

[2] = Nitrite content (ion chromatography; LC-FLD with DAN derivatisation; Griess test) in drug substance, intermediates, reagents, solvents, filters, excipients; format: physicochemical; details: for Nitrite (LOQ: 0.1 ppm) / Nitrite, value in brackets below LOQ: LEE011-B10, laboratory scale 30 g experiments; for Nitrite (ppb): LEE011-DS, further testing
From the text: The method of testing for the presence and/or total amount of nitrites that is used in the methods of the invention may be any method which allows for the detection and/or quantitation of nitrites in a composition. For example, the method may be the Griess test. The Griess test allows for the detection and analysis of nitrite by the formation of a red-pink colour upon treatment of a nitrite-containing sample with the Griess reagent. The Griess reagent consists of two components in an acidic solution: an aniline derivative and a coupling agent. The most common arrangements use sulfanilamide and N-(1-naphthyl)ethylenediamine. For example 0.2% N-(1-naphthyl)ethylenediamine dihydrochloride and 2% sulfanilamide in 5% phosphoric acid may be used as a Griess reagent. Other aniline derivatives that may be used in a Griess reagent include sulfanilic acid, nitroaniline, and p-aminoacetophenone.
The Griess test involves two subsequent reactions, as shown in the scheme below. When the aniline derivative (e.g., sulfanilamide) is added, the nitrite ion reacts with it in the Griess diazotization reaction to form a diazonium salt, which then reacts with N-(1-naphthyl)ethylenediamine in an azo-coupling reaction, forming a pink-red azo-dye. Using a spectrophotometer, the nitrite concentration can then be quantitatively detected.
Additionally purified water; e.g. Milli Q • 2.
• 10 mM KH2PO4 Weigh accurately about 1.361 g of KH2PO4 into a 1 L volumetric flask, dissolve it in approximately 950 mL of additionally purified water and adjust the pH to 8.0 (with 2.7 M NaOH). Make up to the mark with additionally purified water. • 0.62 M HCl Add a few millilitres (e.g. 20 mL) of additionally purified water to a 200 mL volumetric flask, add 10.280 mL of concentrated HCl, mix and make up to the mark with additionally purified water. • 2.7 M NaOH Weigh accurately about 1.092 g of NaOH pellets into a 10 mL volumetric flask and dissolve it in additionally purified water. Cool to room temperature and make up to the mark with the same solvent. • Reagent DAN Weigh accurately about 5 mg of 2,3-diaminophthalene into a 100 mL volumetric flask and dissolve it with the solvent (methanol/water 1:1 (v/v)). Dilute up to the mark and ensure visual full dissolution. Use an amberglass flask. • Mobile phase A Mix 950 mL of 10 mM KH2PO4 solution (pH=8) and add 50 mL methanol. • Mobile phase B Methanol. • Solvent Methanol/water 1:1 (v/v), e.g. mix 2000 mL of additionally purified water and 2000 mL methanol.
• Instrument: HPLC with FLR detector; e.g. Waters Arc or equivalent • Column: C18 50×4.6 mm, 2.5 μm, e.g. XBridge C18 2.5 μm, 4.650 mm or equivalent
• Notes It is recommended to wear additional protective equipment (face mask and gloves) during weighing. • It is recommended to wash the column with 50% methanol after the analysis (example of preparation: mix 500 mL methanol and 500 m1 of additionally purified water). • It is recommended to rinse the injector with solvent after each injection. • All glassware and tools should be rinsed with additionally purified water before use. It is not recommended to leave the solutions open for a longer time before measurement. • Blank solution 1 Transfer 1 mL of solvent into a HPLC vial and perform derivatization as described below. • Blank solution 2 Transfer 10 mL of solvent into a single use glass vial and mix it on a magnetic stirrer for 30 min. Transfer the solution into a 5 mL centrifuge tube and centrifuge for 10 min at 12000 rpm. […] Fill up to the mark with solvent and mix. • (Cnitrite≈0.0005 mg/mL) • Comparison solution Transfer 10 mL of nitrite stock solution into a 500 mL volumetric flask. • (2 parallels) Fill up to the mark with solvent and mix. • Transfer 1 mL solution into a HPLC vial and perform the derivatization as described below. • (Cnitrite≈100 ppb) • Sample solution Accurately weigh about 1000 mg of the sample into a glass vial for single use and add 10 mL of solvent.

[3] = additional batches of ribociclib base LEE011-B10 (IP-1)
[4] = starting material used in the theoretical calculation
[5] = laboratory use test, salt formation B10 to B12 with filter parts added (filter per experiment), AS&T LJ LC-MS/MS
[6] = laboratory use test, salt formation B10 to B12 with filter parts added, QLS LJ LC-FLD/DAN
[7] = ribociclib base (LEE011 B10), ion chromatography
[8] = Raybow batch 805193A078, starting material of resin loading experiments

DMP433 [ppb] [1, 3]: 130 ppb
DMP433 [ppm] [1, 4]: 0.03 ppm
Nitrite [ppm] LOD (1 ppm) [2, 3]: <LOD
Nitrite [ppm] [2, 4]: <0.1 ppm
SMILES: CN(C)C(=O)c1cc2cnc(Nc3ccc(N4CCNCC4)cn3)nc2n1C1CCCC1 [Batch B705468]

DMP433 [ppm] [1, 5]: 1.682 LJ ppm
Nitrite [ppm] [2, 6]: app. 0.26 ppm
SMILES: CN(C)C(=O)c1cc2cnc(Nc3ccc(N4CCNCC4)cn3)nc2n1C1CCCC1.O=C(O)CCC(=O)O [LEE011-cusakal1-021]

DMP433 (LOQ: 30 ppb) [1]: 73.9 ppb
Nitrite (LOQ: 0.1 ppm) [2]: < 0.1 ppm
Nitrite, value in brackets below LOQ [2]: 0.07 ppm
SMILES: CN(C)C(=O)c1cc2cnc(Nc3ccc(N4CCNCC4)cn3)nc2n1C1CCCC1 [Batch 805193A097]

DMP433 [ppb] ([1]; LEE011-DS, further testing): 395 ppb
Nitrite (ppb) [2]: 284 ppb
SMILES: CN(C)C(=O)c1cc2cnc(Nc3ccc(N4CCNCC4)cn3)nc2n1C1CCCC1.O=C(O)CCC(=O)O [Batch 833268A259]

DMP433 [ppb] [1, 3]: 51 ppb
Nitrite [ppm] LOD (1 ppm) [2, 3]: <LOD
SMILES: CN(C)C(=O)c1cc2cnc(Nc3ccc(N4CCNCC4)cn3)nc2n1C1CCCC1 [Batch 805193A077]

DMP433 [ppm] LOQ (0.0625 ppm) [1]: LOQ
DMP433 [ppm], result in brackets (extrapolation, estimate of actual value below LOQ) [1]: 0.048 ppm
Nitrite [ppm] LOD (1 ppm) [2, 7]: <LOD
SMILES: CN(C)C(=O)c1cc2cnc(Nc3ccc(N4CCNCC4)cn3)nc2n1C1CCCC1 [Batch 923037A005]

DMP433 [ppm] [1, 5]: 1.487 ppm
Nitrite [ppm] [2, 6]: app. 0.3 ppm
SMILES: CN(C)C(=O)c1cc2cnc(Nc3ccc(N4CCNCC4)cn3)nc2n1C1CCCC1 [LEE011-cusakal1-032]

DMP433 [ppm] LOQ (0.0625 ppm) [1]: LOQ
DMP433 [ppm], result in brackets (extrapolation, estimate of actual value below LOQ) [1]: 0.030 ppm
Nitrite [ppm] LOD (1 ppm) [2, 7]: <LOD
SMILES: CN(C)C(=O)c1cc2cnc(Nc3ccc(N4CCNCC4)cn3)nc2n1C1CCCC1 [Batch 805193A073]

DMP433 [ppb] ([1]; LEE011-DS, further testing): 380 ppb
Nitrite (ppb) [2]: 369 ppb
SMILES: CN(C)C(=O)c1cc2cnc(Nc3ccc(N4CCNCC4)cn3)nc2n1C1CCCC1.O=C(O)CCC(=O)O [Batch 833268A258]

DMP433 [ppm] [1, 5]: 2.100 ppm
Nitrite [ppm] [2, 6]: app. 0.3 ppm
SMILES: CN(C)C(=O)c1cc2cnc(Nc3ccc(N4CCNCC4)cn3)nc2n1C1CCCC1.O=C(O)CCC(=O)O [LEE011-cusakal1-036]

DMP433 in LEE011-B10 [1, 8]: 92 ppb
DMP433, best result ([1]; isopropanol distilled over ascorbic acid, B10 added last): 0.34 ppm
Nitrite in LEE011-B10 [2, 8]: 257 ppb
SMILES: CN(C)C(=O)c1cc2cnc(Nc3ccc(N4CCNCC4)cn3)nc2n1C1CCCC1 [Ribociclib, 7-cyclopentyl-N, N-dimethyl-2-{[5-(piperazin-1-yl)pyridin-2-yl]amino}-7H-pyrrolo[2,3-d]pyrimidine-6-carboxamide]

DMP433 (LOQ: 30 ppb) [1]: 78.8 ppb
Nitrite (LOQ: 0.1 ppm) [2]: < 0.1 ppm
Nitrite, value in brackets below LOQ [2]: 0.07 ppm
SMILES: CN(C)C(=O)c1cc2cnc(Nc3ccc(N4CCNCC4)cn3)nc2n1C1CCCC1 [Batch 805193A098]

DMP433 [ppm] [1, 5]: 1.789 ppm
Nitrite [ppm] [2, 6]: app. 0.2 ppm
SMILES: CN(C)C(=O)c1cc2cnc(Nc3ccc(N4CCNCC4)cn3)nc2n1C1CCCC1.O=C(O)CCC(=O)O [LEE011-cusakal1-034]
